Assay: Thigh muscle MRI before and after ERT
Format: in vivo
Details: at one year of ERT

Substance: rhGAA: human recombinant acid α-glucosidase; alglucosidase alfa (Myozyme/Lumizyme) enzyme replacement therapy given by intravenous infusion
- decrease in muscle mass in posterior thigh: 11%
- decrease in muscle mass in the anterior thigh: 9.8%
- increase in intramuscular fat accumulation: 8.9%
- subcutaneous fat: 6.6%
